# In ChEMBL document CHEMBL1909629, “Discovery of novel 3,5-disubstituted indole derivatives as potent inhibitors of Pim-1, Pim-2, and Pim-3 protein kinases” (Bioorg Med Chem Lett, 2011):
# Assays:
# [1] = target: Serine/threonine-protein kinase pim-2 (Homo sapiens, UniProt Q9P1W9); assay: Inhibition of PIM2 using BAD peptide as substrate preincubated for 15 mins measured after 60 to 100 mins by luminescence assay
# [2] = target: Serine/threonine-protein kinase pim-1 (Homo sapiens, UniProt P11309); assay: Inhibition of PIM1 using BAD peptide as substrate preincubated for 15 mins measured after 60 to 100 mins by luminescence assay
# [3] = target: Serine/threonine-protein kinase pim-3 (Homo sapiens, UniProt Q86V86); assay: Inhibition of PIM3 using BAD peptide as substrate preincubated for 15 mins measured after 60 to 100 mins by luminescence assay
# [4] = target: Vascular endothelial growth factor receptor 2 (Homo sapiens, UniProt P35968); assay: Inhibition of KDR
# [5] = Inhibition of PDGFR
# [6] = target: T1, Receptor-type tyrosine-protein kinase FLT3 (Homo sapiens, UniProt P36888); assay: Inhibition of FLT3
# T1 sequence (P36888 whole entry): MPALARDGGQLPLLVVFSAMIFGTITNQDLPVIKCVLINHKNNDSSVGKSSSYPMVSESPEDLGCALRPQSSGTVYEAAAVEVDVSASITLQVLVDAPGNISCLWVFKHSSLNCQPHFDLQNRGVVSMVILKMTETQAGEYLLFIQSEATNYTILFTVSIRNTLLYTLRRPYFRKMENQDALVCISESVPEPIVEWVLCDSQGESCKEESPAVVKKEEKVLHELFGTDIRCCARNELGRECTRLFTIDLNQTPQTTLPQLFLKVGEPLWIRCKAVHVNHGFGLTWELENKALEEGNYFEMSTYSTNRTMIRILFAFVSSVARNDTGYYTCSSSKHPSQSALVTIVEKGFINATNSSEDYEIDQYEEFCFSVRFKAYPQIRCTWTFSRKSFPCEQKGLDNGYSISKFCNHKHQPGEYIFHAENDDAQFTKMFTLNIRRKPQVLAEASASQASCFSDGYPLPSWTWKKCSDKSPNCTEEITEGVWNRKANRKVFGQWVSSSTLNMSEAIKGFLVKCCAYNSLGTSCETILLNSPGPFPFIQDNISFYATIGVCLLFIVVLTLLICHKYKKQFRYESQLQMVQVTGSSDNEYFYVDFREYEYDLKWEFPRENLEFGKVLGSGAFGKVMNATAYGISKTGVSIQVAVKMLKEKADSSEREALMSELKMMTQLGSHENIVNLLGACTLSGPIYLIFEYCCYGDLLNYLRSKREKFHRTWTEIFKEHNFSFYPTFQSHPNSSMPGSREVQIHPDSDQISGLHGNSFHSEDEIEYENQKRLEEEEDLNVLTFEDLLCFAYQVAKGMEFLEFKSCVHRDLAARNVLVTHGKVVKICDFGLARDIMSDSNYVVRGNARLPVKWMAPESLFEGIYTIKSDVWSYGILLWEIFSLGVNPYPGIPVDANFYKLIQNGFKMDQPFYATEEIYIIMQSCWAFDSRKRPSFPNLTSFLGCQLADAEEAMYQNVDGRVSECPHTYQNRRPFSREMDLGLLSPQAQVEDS
# [7] = target: Mast/stem cell growth factor receptor Kit (Homo sapiens, UniProt P10721); assay: Inhibition of cKIT
# Mast/stem cell growth factor receptor Kit, sequence (P10721 whole entry): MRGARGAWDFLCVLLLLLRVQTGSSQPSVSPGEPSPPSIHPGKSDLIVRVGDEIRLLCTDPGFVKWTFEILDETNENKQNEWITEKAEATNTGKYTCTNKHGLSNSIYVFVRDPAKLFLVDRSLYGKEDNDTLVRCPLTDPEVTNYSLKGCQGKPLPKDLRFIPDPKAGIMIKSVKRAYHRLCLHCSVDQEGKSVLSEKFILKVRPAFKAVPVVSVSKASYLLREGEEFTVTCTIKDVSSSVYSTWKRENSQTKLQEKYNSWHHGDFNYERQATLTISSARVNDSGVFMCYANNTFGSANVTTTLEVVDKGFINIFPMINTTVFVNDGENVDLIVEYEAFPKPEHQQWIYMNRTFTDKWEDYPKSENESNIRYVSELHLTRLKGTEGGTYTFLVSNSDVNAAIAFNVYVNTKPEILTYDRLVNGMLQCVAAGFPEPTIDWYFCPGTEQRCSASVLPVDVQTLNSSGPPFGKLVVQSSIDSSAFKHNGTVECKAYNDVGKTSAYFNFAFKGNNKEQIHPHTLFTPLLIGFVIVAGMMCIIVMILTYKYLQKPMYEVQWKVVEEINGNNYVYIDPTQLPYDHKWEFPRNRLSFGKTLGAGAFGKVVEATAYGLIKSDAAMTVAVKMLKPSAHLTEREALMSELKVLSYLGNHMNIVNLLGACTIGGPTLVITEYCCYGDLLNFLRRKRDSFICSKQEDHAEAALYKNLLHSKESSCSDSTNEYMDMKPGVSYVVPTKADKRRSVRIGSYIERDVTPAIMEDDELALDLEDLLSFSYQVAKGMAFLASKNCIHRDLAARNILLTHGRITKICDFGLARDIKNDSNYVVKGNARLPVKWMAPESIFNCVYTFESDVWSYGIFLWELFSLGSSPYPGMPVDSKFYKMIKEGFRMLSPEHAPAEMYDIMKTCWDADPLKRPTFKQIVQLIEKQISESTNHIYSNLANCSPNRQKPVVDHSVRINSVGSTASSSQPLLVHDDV
# Serine/threonine-protein kinase pim-1, sequence (P11309 whole entry): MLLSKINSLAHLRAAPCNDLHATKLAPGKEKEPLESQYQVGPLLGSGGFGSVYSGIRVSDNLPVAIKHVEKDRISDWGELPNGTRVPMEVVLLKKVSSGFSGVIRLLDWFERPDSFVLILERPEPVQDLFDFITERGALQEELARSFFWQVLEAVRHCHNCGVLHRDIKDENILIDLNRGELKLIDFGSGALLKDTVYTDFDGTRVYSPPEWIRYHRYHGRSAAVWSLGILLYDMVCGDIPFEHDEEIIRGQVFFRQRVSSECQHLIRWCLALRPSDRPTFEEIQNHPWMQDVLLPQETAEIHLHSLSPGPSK
# Serine/threonine-protein kinase pim-2, sequence (Q9P1W9 whole entry): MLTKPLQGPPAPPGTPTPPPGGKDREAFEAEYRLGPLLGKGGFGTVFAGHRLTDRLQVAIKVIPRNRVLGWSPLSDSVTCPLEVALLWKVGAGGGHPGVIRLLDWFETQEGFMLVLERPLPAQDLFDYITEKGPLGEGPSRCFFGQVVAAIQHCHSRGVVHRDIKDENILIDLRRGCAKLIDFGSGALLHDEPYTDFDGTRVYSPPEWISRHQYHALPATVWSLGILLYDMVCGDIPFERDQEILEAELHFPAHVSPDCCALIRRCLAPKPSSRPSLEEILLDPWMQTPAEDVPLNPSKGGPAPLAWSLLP
# Vascular endothelial growth factor receptor 2, sequence (P35968 whole entry): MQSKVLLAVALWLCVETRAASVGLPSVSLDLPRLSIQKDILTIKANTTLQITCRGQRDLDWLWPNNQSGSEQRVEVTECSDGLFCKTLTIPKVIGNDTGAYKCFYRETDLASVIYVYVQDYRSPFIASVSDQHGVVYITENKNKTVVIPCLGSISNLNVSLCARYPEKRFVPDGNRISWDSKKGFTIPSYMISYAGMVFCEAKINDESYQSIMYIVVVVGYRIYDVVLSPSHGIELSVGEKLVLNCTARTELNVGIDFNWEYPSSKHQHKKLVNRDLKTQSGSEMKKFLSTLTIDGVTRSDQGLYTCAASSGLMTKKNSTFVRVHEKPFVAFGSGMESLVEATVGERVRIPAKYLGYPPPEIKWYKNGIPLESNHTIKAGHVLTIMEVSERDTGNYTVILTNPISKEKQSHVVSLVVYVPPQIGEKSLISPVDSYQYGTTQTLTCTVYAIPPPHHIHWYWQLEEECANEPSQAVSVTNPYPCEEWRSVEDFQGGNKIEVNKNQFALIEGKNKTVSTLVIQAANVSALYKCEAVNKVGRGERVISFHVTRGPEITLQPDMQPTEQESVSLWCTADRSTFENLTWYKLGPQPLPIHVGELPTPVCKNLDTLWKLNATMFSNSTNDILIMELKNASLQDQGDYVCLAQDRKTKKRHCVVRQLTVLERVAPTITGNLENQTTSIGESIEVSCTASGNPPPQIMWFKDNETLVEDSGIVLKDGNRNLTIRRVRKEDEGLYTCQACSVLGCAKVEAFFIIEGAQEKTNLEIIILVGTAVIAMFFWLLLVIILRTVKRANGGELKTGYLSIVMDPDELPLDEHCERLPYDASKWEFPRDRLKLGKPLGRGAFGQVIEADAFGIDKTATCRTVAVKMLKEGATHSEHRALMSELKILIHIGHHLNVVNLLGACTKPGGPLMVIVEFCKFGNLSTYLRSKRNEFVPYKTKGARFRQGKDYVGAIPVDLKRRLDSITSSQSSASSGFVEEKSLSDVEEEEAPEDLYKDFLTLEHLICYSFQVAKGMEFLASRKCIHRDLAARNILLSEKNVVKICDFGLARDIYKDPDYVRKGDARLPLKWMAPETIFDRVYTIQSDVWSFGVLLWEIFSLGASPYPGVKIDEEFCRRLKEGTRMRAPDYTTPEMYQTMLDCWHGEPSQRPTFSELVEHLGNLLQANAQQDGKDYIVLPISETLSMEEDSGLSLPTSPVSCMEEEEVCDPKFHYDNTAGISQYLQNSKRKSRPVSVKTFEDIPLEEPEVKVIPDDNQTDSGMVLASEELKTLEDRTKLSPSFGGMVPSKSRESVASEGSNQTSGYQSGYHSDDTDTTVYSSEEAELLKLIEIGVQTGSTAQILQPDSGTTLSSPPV
IC50 [1] [µM],IC50 [2] [µM],IC50 [3] [µM],IC50 [4] [µM],IC50 [5] [µM],IC50 [6] [µM],IC50 [7] [µM],SMILES
> 25,2.6,3.3,–,–,–,–,c1ncc(-c2ccc3[nH]cc(-c4ccc(N5CCNCC5)cc4)c3c2)cn1
0.283,0.03,0.058,4.76,0.987,0.111,1.11,Oc1ccc(-c2ccc3c(-c4ccc(N5CCNCC5)cc4)c[nH]c3n2)cc1
0.039,0.009,0.012,0.018,0.006,0.004,0.007,Oc1ccc(-c2ccc3c(-c4ccc(N5CCNCC5)cc4)n[nH]c3n2)cc1
0.042,0.004,0.022,> 25,–,> 25,> 25,Oc1ccc(-c2ccc3c(-c4ccc(N5CCNCC5)cc4)c[nH]c3c2)cc1
7.2,1.7,7.4,–,–,–,–,c1ccc(-c2ccc3c(-c4ccc(N5CCNCC5)cc4)n[nH]c3n2)cc1
> 25,4.9,12.8,–,–,–,–,COc1ccc(-c2ccc3c(-c4ccc(N5CCNCC5)cc4)n[nH]c3n2)cc1
> 25,2.5,5.8,–,–,–,–,c1cc(-c2ccc3c(-c4ccc(N5CCNCC5)cc4)n[nH]c3n2)ccn1
> 25,15,12,–,–,–,–,Nc1ccc(-c2ccc3c(-c4ccc(N5CCNCC5)cc4)n[nH]c3n2)cn1
20,0.17,1.8,–,–,–,–,Nc1cc(-c2ccc3c(-c4ccc(N5CCNCC5)cc4)n[nH]c3n2)ccn1
> 25,11,10,–,–,–,–,NS(=O)(=O)c1ccc(-c2ccc3c(-c4ccc(N5CCNCC5)cc4)n[nH]c3n2)cc1
0.65,0.11,0.26,–,–,–,–,c1cc(-c2ccc3c(-c4ccc(N5CCNCC5)cc4)n[nH]c3n2)c2cc[nH]c2c1
15,0.192,0.49,–,–,–,–,c1cncc(-c2ccc3[nH]cc(-c4ccc(N5CCNCC5)cc4)c3c2)c1
> 25,2.8,5.7,–,–,–,–,c1cc(-c2ccc3[nH]cc(-c4ccc(N5CCNCC5)cc4)c3c2)ccn1
> 25,2.1,14,–,–,–,–,c1ccc(-c2ccc3[nH]cc(-c4ccc(N5CCNCC5)cc4)c3c2)nc1
13.6,0.53,0.96,–,–,–,–,c1cnc(-c2ccc3[nH]cc(-c4ccc(N5CCNCC5)cc4)c3c2)cn1
5,0.25,0.31,–,–,–,–,Nc1ccc(-c2c[nH]c3ccc(-c4cnccn4)cc23)c(F)n1
0.083,< 0.002,0.005,–,–,–,–,Nc1ccc(-c2c[nH]c3ccc(-c4cncc(O[C@H]5CC[C@H](N)CC5)n4)cc23)c(F)n1
0.061,< 0.002,0.004,–,–,–,–,Nc1ccc(-c2c[nH]c3ccc(-c4cncc(N5CCNCC5)n4)cc23)c(F)n1
0.081,< 0.002,0.003,–,–,–,–,Nc1ccc(-c2c[nH]c3ccc(-c4cncc(N5CCCC(N)C5)n4)cc23)c(F)n1 (stereo unspecified)
0.056,< 0.002,< 0.002,–,–,–,–,C[C@H](N)COc1cncc(-c2ccc3[nH]cc(-c4ccc(N)nc4F)c3c2)n1
0.026,< 0.002,0.005,–,–,–,–,CC[C@H](N)COc1cncc(-c2ccc3[nH]cc(-c4ccc(N)nc4F)c3c2)n1
0.072,< 0.002,0.006,–,–,–,–,CC(C)[C@H](N)COc1cncc(-c2ccc3[nH]cc(-c4ccc(N)nc4F)c3c2)n1
0.122,< 0.002,0.01,–,–,–,–,CC(C)(C)[C@H](N)COc1cncc(-c2ccc3[nH]cc(-c4ccc(N)nc4F)c3c2)n1
0.01,< 0.002,< 0.002,–,–,–,–,Nc1ccc(-c2c[nH]c3ccc(-c4cncc(OC[C@@H](N)c5ccccc5)n4)cc23)c(F)n1
0.02,< 0.002,0.005,–,–,–,–,Nc1ccc(-c2c[nH]c3ccc(-c4cncc(OC[C@H](N)c5ccccc5)n4)cc23)c(F)n1
